Source: PubChem BioAssay AID449764 (Southern Research Specialized Biocontainment Screening …, 2010)

Test system: Mycobacterium tuberculosis H37Rv growth inhibition, no glycerol
Experiment: Confirmatory growth inhibition assay, Mycobacterium tuberculosis H37Rv, absence of glycerol (AID 449764);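 note: growth read after 7 days of incubation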
Settings: for IC90: measured here: IC90 growth inhibition

Structure (SMILES)	IC50	IC90
CC(/C=N/n1c(C2CCCCC2)n[nH]c1=S)=C\c1ccccc1	80.8 µM	90.3 µM
O=C1C2C(C(=O)N1/N=C/c1ccc([N+](=O)[O-])o1)C1C=CC2C12CC2 (stereo not drawn)	32.3 µM	52.8 µM
COc1ccccc1NC(=O)Nc1nc(CC(=O)N2CCN(c3ccccc3F)CC2)cs1	–	> 100 µM
CC(=O)c1c(C)n(C)c2ccc(OC(=O)c3ccc([N+](=O)[O-])cc3)cc12	19.8 µM	> 100 µM
C[C@]12CC[C@@H]3c4ccc(O)cc4CC[C@H]3[C@@H]1CC[C@@H]2OC(=O)CCC1CCCC1	14.5 µM	35.3 µM
NC(N)=N/N=C/c1ccc(N(c2ccccc2)c2ccccc2)cc1	9.86 µM	12.8 µM
COC(=O)c1cc(-c2cccc(OC)c2)on1	10.5 µM	> 100 µM
CCCCCNc1nc(N2CCCC2)c2c(c1C#N)CCN(C)C2	–	> 100 µM
c1ccc(Cn2c3ccccc3c3nnc(SCCN4CCCCC4)nc32)cc1	27.5 µM	42.1 µM
O=C(C[n+]1ccc(C(=O)c2ccccc2)cc1)Nc1ccc(C(F)(F)F)cc1	23.4 µM	26.7 µM
CC(C)(C)c1ccc(C(=O)CSc2n[nH]c(=O)[nH]c2=O)cc1	16.4 µM	28.6 µM
Cc1ccc(CN2CCN(/N=C/c3ccc(Cl)c([N+](=O)[O-])c3)CC2)cc1	39.4 µM	55.3 µM
C[CH2][Hg][S]c1ccccc1C(=O)O	0.52 µM	1.26 µM
O=C(Nc1nnc(-c2ccccc2)o1)c1cc(-c2cccs2)nc2ccccc12	1.76 µM	2.94 µM
Cc1ccc2c(c1)c(/C=C/c1cc[n+](C)cc1)c(C)n2C	5.82 µM	6.61 µM
CN(C)C(=O)C1C2NC(=S)N(c3ccc(Cl)cc3)C1(C)Oc1ccc(Cl)cc12 (stereo not drawn)	31.7 µM	55.5 µM
COc1ccc(N2CCN(C(=O)c3cc4c(C)nc5ccccc5c4o3)CC2)cc1	81.3 µM	> 100 µM
CCOC(=O)c1ccc(-c2c(-c3ccc4c(c3)OCO4)noc2C)cc1F	53.5 µM	> 100 µM
CC1(C)CC(NC(=O)c2ccc(Cl)c(S(=O)(=O)N(Cc3ccccc3)c3ccccc3)c2)CC(C)(C)N1	28.3 µM	43.4 µM
O=C1C(SCCO)=C(SCCO)C(=O)c2ccccc21	11.3 µM	12 µM
c1ccc(CSc2ccc(-c3ccccn3)nn2)cc1	89.4 µM	94.2 µM
COc1ccc(-n2nc3c(c2NC(=O)CCl)CSC3)cc1	6.92 µM	12.5 µM
Cc1cccc2c1N(CCCOc1ccc(C(C)(C)C)cc1)C(=O)C2=O	17.4 µM	20.1 µM

Structure (SMILES)	IC50	IC90
COC(=O)[C@@H](NC(=O)O[C@@H]1C(=O)c2ccc(OC)cc2O[C@H]1c1cccc(C(F)(F)F)c1)C(C)C	–	> 100 µM
CCCCCOc1ccc(NC2=CC(=O)CCC2)cc1	77.8 µM	99 µM
O=S(Cc1ccc(Br)cc1)Cc1nnc(SCc2ccc(Cl)cc2)n1-c1ccccc1 (stereo not drawn)	83.2 µM	> 100 µM
COc1cc(/C=C(\C#N)c2nc3c(s2)CC(C)CC3)ccc1O (stereo not drawn)	45.5 µM	51.4 µM
CCOC(=O)C(C)Oc1ccc(OCc2ccccc2)cc1 (stereo not drawn)	9.95 µM	14.6 µM
C/C(=N\Nc1nc2c(s1)CCCC2)c1ccccc1	30.6 µM	47.2 µM
CC1(c2nnc(-c3ccncc3)o2)CC(c2ccccc2)=NO1 (stereo not drawn)	68.5 µM	> 100 µM
c1ccc(Nc2nc(N3CCCCC3)nc(N3CCNCC3)n2)cc1	44.4 µM	69.4 µM
Cc1cccc(/C=C/c2onc(C)c2[N+](=O)[O-])n1	20.2 µM	26.8 µM
COC(=O)CSc1ncnc2c1cnn2-c1ccc(C)cc1C	6.02 µM	6.82 µM
CC(C)Cc1nc2oc3c(N4CCN(CCO)CC4)ncnc3c2c2c1CCCC2	18.3 µM	24.9 µM
COc1ccc(C(=O)OCC(=O)c2ccc(Br)s2)c(OC)c1	73.6 µM	> 100 µM
CS(=O)(=O)c1ncc(Cl)c(C(=O)Nc2ccc(OC(F)F)cc2)n1	13.6 µM	> 25 µM
O=C(NCC1CC1)c1cc([N+](=O)[O-])cc([N+](=O)[O-])c1	6.57 µM	11.2 µM
O=[N+]([O-])c1cc(Cl)c(O)c(-[n+]2c(-c3ccccc3)cc(-c3ccccc3)cc2-c2ccccc2)c1	4.63 µM	7.3 µM
C=C1C(=O)[C@@]23[C@H](O)C[C@@H]4C(C)(C)CC[C@H](O)[C@@]4(C)[C@@H]2CC[C@@H]1[C@H]3O	8.35 µM	11.3 µM
CCOC(=O)CNC(=O)c1sc2ncnc(N3CCc4ccccc4C3)c2c1C	79.1 µM	97.7 µM
Cc1nn(CCc2nn[nH]n2)c2nc(-c3ccc(Br)cc3)cc(C(F)(F)F)c12	8.29 µM	16.8 µM
COc1ccc(-c2oc3cccnc3c2/C=C/c2ccc(OC)c(OC)c2)cc1	56.6 µM	> 100 µM
O=C(Nc1cccc(-c2nc3ccccc3s2)c1)c1cc(-n2cnnc2)ccc1Cl	14 µM	22 µM
Nc1ccc2cc(Br)ccc2c1	54.1 µM	81.6 µM
Clc1ccc(Nc2ccc(-n3ccnc3)nn2)cc1Cl	21.9 µM	24.8 µM
CCOC(=O)c1ccc(NC(=S)NCCc2ccc(F)cc2)cc1	75.3 µM	> 100 µM

Structure (SMILES)	IC50	IC90
CCCCCC(=O)N/N=C(\C)c1ccccn1	29 µM	38.9 µM
CCCOc1ccc2c(c1)C(=NN=C(N)N)c1cc(OCCC)ccc1-2	11.1 µM	18.1 µM
Cc1nn2c(NCc3ccccn3)cc(C(C)C)nc2c1-c1ccccc1	2.85 µM	3.23 µM
Nc1n[nH]c(C2CC2)c1N=Nc1ccc(Cl)cc1	32.4 µM	54.3 µM
CC(C)(C)C1CCc2nc(NC(=O)Cc3cn4ccsc4n3)sc2C1 (stereo not drawn)	24.3 µM	35.4 µM
Nc1ccc(Oc2ccc(F)cc2)nc1	70.1 µM	85.7 µM
COc1ccc(N(CC(=O)Nc2ccccc2C(N)=O)S(=O)(=O)c2ccc(C)c([N+](=O)[O-])c2)cc1	96.9 µM	> 100 µM
COc1ccc(-c2cn3cc([N+](=O)[O-])ccc3n2)cc1OC	46.9 µM	> 50 µM
COc1ccc(-c2c(C#N)c(SCC(=O)c3cc4ccccc4oc3=O)nc(C)c2C(=O)Nc2ccccc2)cc1	72.3 µM	> 100 µM
S=C(NCCc1ccccc1)NN=C1CCCCCC1	45.8 µM	50.1 µM
CN1CCN(c2c(F)cc3c(=O)c(C(=O)O)cn4c3c2OCN4C)CC1	0.72 µM	0.93 µM
CC(C)(C)NC(=O)C(=O)NNC(=O)c1ccc(C(C)(C)C)cc1	14.4 µM	> 100 µM
O=C(c1ccccc1)c1nn(-c2ccc(Cl)cc2)c(=O)cc1C(F)(F)F	20.1 µM	31.1 µM
O=C(Nc1ccc(OCC(F)(F)C(F)F)c(C(F)(F)F)c1)c1ccc(Cl)cc1	33.2 µM	46.9 µM
Cn1cc(C(=O)c2ccc(Cl)cc2)cc1-c1nc2ccccc2n1C	35.9 µM	49.5 µM
N=c1n(Cc2ccc(Cl)cc2)c2ccccc2n1CC(O)COc1ccccc1 (stereo not drawn)	22.7 µM	27.2 µM
Cc1ccc(-c2noc(-c3cc4ccccc4oc3=O)n2)cc1	11.4 µM	> 100 µM
Clc1ccc2c(c1)CCc1cccnc1C2=C1CCNCC1	32.9 µM	38.8 µM
N#Cc1c(SCC(N)=O)nsc1SCc1ccccc1Cl	45.8 µM	> 100 µM
C#CCOCCOCCOCCNc1nc(N2CCN(C(=O)CCCCCCCCCCNC(=O)[C@H](CCCCN)n3cc(CCCC(=O)O)nn3)CC2)nc(N2CCN(C(=O)CCCCCCCCCCNC(=O)[C@H](CCCN=C(N)N)n3cc(C[C@@H](C)CC)nn3)CC2)n1	6.73 µM	9.93 µM
O=C(CCc1ccc(Oc2cc([N+](=O)[O-])cc([N+](=O)[O-])c2)cc1)N1CCCCCC1	14.9 µM	22.9 µM
Cc1ccccc1NC(=O)Cc1nc(COC(=O)/C=C/c2ccccc2)cs1	67.7 µM	92.3 µM
